Assay type in all cases: physicochemical
The nature of series [1]: Reactivity to a drug: aspirin decomposition rate after storage mixed with cellulose. The conditions noted are these: 60° C., two weeks, closed vial. The protocol:
(12) Reactivity to a Drug
Aspirin (Japanese Pharmacopeia crystalline aspirin was treated with a small grinder φ0.5 mm, with 1 pass treatment) and each cellulose sample was mixed at 5/5 (total 0.5 g) in dry conditions and then placed in a glass sample vial and mixed. The vial was stored in an oven (Made by Tabai Espec Corp. Perfect Oven (Commercial Name)) with the cap tightly closed (at 60° C.) for two weeks and then the decomposition rate was measured. Ferric (III) […] sulfate 12 hydrate 8 g was placed in a 100 ml measuring flask, mixed with pure water to bring the volume up to 100 ml to make a coloring test solution. 0.25 g of stored aspirin (total 0.5 g of the blended powder) was introduced to a 50 ml measuring flask, mixed with ethanol to bring the volume up to 50 ml and the mixture was shaken for 5 minutes. Thus obtained ethanol solution was filtered, the filtrate was transferred to a 100 ml measuring flask and ethanol was added to bring the volume up to 100 ml. One milliliter of this ethanol solution and 1 ml of the coloring test solution described above were introduced to a 50 ml measuring flask, mixed with pure water to bring the volume up to 50 ml and the absorption was measured at the wavelength of 532 nm using a UV absorption meter (made by JASCO Corporation). The decomposition rate was calculated from the following formula. […]

Series [2] in a line: Elution test of drug from cylindrical molded body (paddle, UV absorbance). The conditions noted are these: ethenzamide; molded body 50 MPa; paddle 100 rpm, 900 mL Pharmacopeia I liquid. The method, then:
Cellulose particles A were used. A commercially available ibuprofen (an active component indicated as being almost completely insoluble in water according to Japanese Pharmacopeia 14) was dissolved in polyethylene glycol (Macrogol 400 from Sanyo Kasei Co., Ltd.) at a proportion of 1:5, and then diluted by 10 with ethanol. This was added to the cellulose particles A to result in 10% by weight. The mixture was stirred in a die. A die (from KIKUSUI SEISAKUSHO LTD, made with SUS 2, 3) was filled with 0.2 g of the obtained powder, and a circular flat punch (from KIKUSUI SEISAKUSHO LTD, made with SUS 2, 3) with a diameter of 0.8 cm was used to apply compression until the pressure reached 100 MPa (PCM-1A (Commercial Name) from AIKOH ENGINEERING CO., LTD. was used with a compression rate of 1 cm/min). The cylindrical molded body was released after the target pressure was maintained for 10 seconds. Fluid component effusion on the surface of the molded body was observed, drug elution from the cylindrical molded body (elution tests were conducted with a JASCO Corporation ultraviolet absorption spectrometer at paddle speed 100 rpm and 900 mL of Pharmacopeia I liquid, in which fluid absorbance was measured and the elution rate was calculated 3 minutes after) and disintegration time of the cylindrical molded bodies was measured. […]

The nature of series [3]: Repose angle (Sugihara type device). The conditions noted are these: low fluidity component model without cellulose. The protocol: Using a Sugihara type repose angle measuring device (slit size: depth 10 mm×width 50 mm×height 140 mm, a protractor was placed at the position of 50 mm width), the dynamic self-fluidity was measured when cellulose powder was dropped to the slit at 3 g/minute using a quantitative feeder. The angle between the bottom of the device and the top layer of the cellulose powder is the repose angle.

Results on three compounds are retold here after US8771742B2, “Porous cellulose aggregate and molding composition thereof” (Asahi Kasei Chemicals Corporation, priority 2005, dated 2014).

In the case of `CC(=O)Oc1ccccc1C(=O)O` [aspirin, Aspirin], the aspirin decomposition rate in series [1] is recorded as 15%.

Regarding `CCOc1ccccc1C(N)=O` [Comparative Example 76, ethenzamide], in series [2], the “Elution rate after 1 hour” value is listed as 9%.

Take `CC(=O)Nc1ccc(O)cc1` [Component model C, Acetaminophen]: the “Repose angle Before the addition of cellulose” value in series [3] was 55 °.
